Assay results: patent US9708314B2, “Heterocyclic amide compound” (NISSAN CHEMICAL INDUSTRIES, LTD., priority 2013, dated 2017)

Legend:
Format in all cases: in vivo
[1] = tested on: Echinochloa oryzacola Vasing.; assay: Test Example 2: herbicidal activity, application during weed generation in submerged conditions; conditions: Eighteenth Table; application herbicide amount 320 g/ha
How it was run: (§1)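 Paddy-type pot test: flooded soil, 4 cm depth, greenhouse 25–30 °C. Emulsion formulation diluted in water, applied to water surface at 1–2 leaf stage; rate expressed as g/ha. Read-out at 3 wk, 0–5 score.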

[2] = tested on: Monochoria vaginalis; assay: as above; conditions: Eighteenth Table; application herbicide amount 320 g/ha
How it was run: as §1

[3] = tested on: Scirpus juncoides; assay: as above; conditions: Eighteenth Table; application herbicide amount 320 g/ha
How it was run: as §1

[4] = tested on: directly sowed Oryza sativa; assay: Test Example 3: effect on crop by application to foliage (Wagner pot, water depth 0.1-0.5 cm); conditions: Nineteenth Table; application to foliage; application herbicide amount 320 g/ha
How it was run: (§2)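 Rice-field weeds and directly sown rice were grown 14 days in flooded alluvial soil (water depth 0.1–0.5 cm) at 25–30 °C in a greenhouse. An emulsion formulation diluted to the stated g/ha rate was sprayed onto stems and leaves. Effects were scored on a 0–5 scale (herbicidal ratio bands) three weeks after treatment.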

[5] = tested on: Cyperus difformis; assay: Test Example 3: herbicidal effect by application to foliage (Wagner pot, water depth 0.1-0.5 cm); conditions: Nineteenth Table; application to foliage; application herbicide amount 320 g/ha
How it was run: as §2

[6] = tested on: Leptochloa chinensis; assay: as above; conditions: Nineteenth Table; application to foliage; application herbicide amount 320 g/ha
How it was run: as §2

[7] = tested on: Echinochloa crus-galli var. crus-galli; assay: as above; conditions: Nineteenth Table; application to foliage; application herbicide amount 320 g/ha
How it was run: as §2

| Structure (SMILES) | A (Echinochloa oryzicola Vasing.) herbicidal ratio grade [1] | C (Monochoria vaginalis) herbicidal ratio grade [2] | B (Scirpus juncoides) herbicidal ratio grade [3] | b (effect on crop grade) [4] | E (herbicidal effect grade) [5] | D (herbicidal effect grade) [6] | H (herbicidal effect grade) [7] |
| --- | --- | --- | --- | --- | --- | --- | --- |
| COCCOC(=O)Cc1nnc2c(C(=O)Nc3nnc(C)o3)ccc(C(F)(F)F)n12 [1-060] | 2 (Herbicidal ratio of 20% or more and less than 40%) | 2 (Herbicidal ratio of 20% or more and less than 40%) | 3 (Herbicidal ratio of 40% or more and less than 70%) | 2 (Herbicidal ratio of 20% or more and less than 40%) | 3 (Herbicidal ratio of 40% or more and less than 70%) | 4 (Herbicidal ratio of 70% or more and less than 90%) | 5 (Herbicidal ratio of 90% or more (almost completely withered)) |
| CC(=O)OCc1nnc2c(C(=O)Nc3nnc(C)o3)ccc(C(F)(F)F)n12 [1-062] | 2 (Herbicidal ratio of 20% or more and less than 40%) | 2 (Herbicidal ratio of 20% or more and less than 40%) | 2 (Herbicidal ratio of 20% or more and less than 40%) | 2 (Herbicidal ratio of 20% or more and less than 40%) | 4 (Herbicidal ratio of 70% or more and less than 90%) | 4 (Herbicidal ratio of 70% or more and less than 90%) | 5 (Herbicidal ratio of 90% or more (almost completely withered)) |
| COCCSc1nnc2c(C(=O)Nc3nnc(C)o3)ccc(C(F)(F)F)n12 [1-063] | 4 (Herbicidal ratio of 70% or more and less than 90%) | 2 (Herbicidal ratio of 20% or more and less than 40%) | 3 (Herbicidal ratio of 40% or more and less than 70%) | 2 (Herbicidal ratio of 20% or more and less than 40%) | 5 (Herbicidal ratio of 90% or more (almost completely withered)) | 5 (Herbicidal ratio of 90% or more (almost completely withered)) | 5 (Herbicidal ratio of 90% or more (almost completely withered)) |
| C=CCSc1nnc2c(C(=O)Nc3nnc(C)o3)ccc(C(F)(F)F)n12 [1-064] | 2 (Herbicidal ratio of 20% or more and less than 40%) | 2 (Herbicidal ratio of 20% or more and less than 40%) | 3 (Herbicidal ratio of 40% or more and less than 70%) | 2 (Herbicidal ratio of 20% or more and less than 40%) | 4 (Herbicidal ratio of 70% or more and less than 90%) | 4 (Herbicidal ratio of 70% or more and less than 90%) | 5 (Herbicidal ratio of 90% or more (almost completely withered)) |
| CN(C)c1nnc2c(C(=O)Nc3nnco3)ccc(C(F)(F)F)n12 [1-103] | 4 (Herbicidal ratio of 70% or more and less than 90%) | 4 (Herbicidal ratio of 70% or more and less than 90%) | 5 (Herbicidal ratio of 90% or more (almost completely withered)) | 4 (Herbicidal ratio of 70% or more and less than 90%) | 5 (Herbicidal ratio of 90% or more (almost completely withered)) | 5 (Herbicidal ratio of 90% or more (almost completely withered)) | 5 (Herbicidal ratio of 90% or more (almost completely withered)) |
| Cc1nnc(NC(=O)c2ccc(C(F)(F)F)n3c(CC4CC4)nnc23)o1 [1-104] | 4 (Herbicidal ratio of 70% or more and less than 90%) | 3 (Herbicidal ratio of 40% or more and less than 70%) | 3 (Herbicidal ratio of 40% or more and less than 70%) | 0 (Herbicidal ratio of 5% or less (almost no effect)) | 4 (Herbicidal ratio of 70% or more and less than 90%) | 5 (Herbicidal ratio of 90% or more (almost completely withered)) | 5 (Herbicidal ratio of 90% or more (almost completely withered)) |
| Cc1nnc(NC(=O)c2ccc(C(F)(F)F)n3c(C4(C)CC4(Cl)Cl)nnc23)o1 (stereo not shown) [1-105] | 3 (Herbicidal ratio of 40% or more and less than 70%) | 3 (Herbicidal ratio of 40% or more and less than 70%) | 4 (Herbicidal ratio of 70% or more and less than 90%) | 0 (Herbicidal ratio of 5% or less (almost no effect)) | 5 (Herbicidal ratio of 90% or more (almost completely withered)) | 5 (Herbicidal ratio of 90% or more (almost completely withered)) | 5 (Herbicidal ratio of 90% or more (almost completely withered)) |
| CCSc1nnc2c(C(=O)Nc3nnco3)ccc(C(F)(F)F)n12 [1-106] | 5 (Herbicidal ratio of 90% or more (almost completely withered)) | 4 (Herbicidal ratio of 70% or more and less than 90%) | 5 (Herbicidal ratio of 90% or more (almost completely withered)) | 3 (Herbicidal ratio of 40% or more and less than 70%) | 5 (Herbicidal ratio of 90% or more (almost completely withered)) | 5 (Herbicidal ratio of 90% or more (almost completely withered)) | 5 (Herbicidal ratio of 90% or more (almost completely withered)) |
| COCCOCc1nnc2c(C(=O)Nc3nnco3)ccc(C(F)(F)F)n12 [1-107] | 5 (Herbicidal ratio of 90% or more (almost completely withered)) | 4 (Herbicidal ratio of 70% or more and less than 90%) | 4 (Herbicidal ratio of 70% or more and less than 90%) | 3 (Herbicidal ratio of 40% or more and less than 70%) | 5 (Herbicidal ratio of 90% or more (almost completely withered)) | 5 (Herbicidal ratio of 90% or more (almost completely withered)) | 5 (Herbicidal ratio of 90% or more (almost completely withered)) |
| CCCSc1nnc2c(C(=O)Nc3nnco3)ccc(C(F)(F)F)n12 [1-108] | 4 (Herbicidal ratio of 70% or more and less than 90%) | 3 (Herbicidal ratio of 40% or more and less than 70%) | 4 (Herbicidal ratio of 70% or more and less than 90%) | 1 (Herbicidal ratio of 5% or more and less than 20%) | 5 (Herbicidal ratio of 90% or more (almost completely withered)) | 5 (Herbicidal ratio of 90% or more (almost completely withered)) | 5 (Herbicidal ratio of 90% or more (almost completely withered)) |
